Assay results reported in patent US7071231B2, “Naphthalene ureas as glucose uptake enhancers” (Telik, Inc., priority 1999, dated 2006).

Tests used:
[1] = biological target: T1, human insulin receptor (Homo sapiens, UniProt P06213); assay: Whole-cell phosphorylation assay (3T3HIR cells); type: cell-based; settings: 15 min, anti-phosphotyrosine Western, various concentrations (FIG. 2)
T1 construct: expressed in transfected cells; host or cells: NIH 3T3 (3T3HIR)
Experimental: Whole-cell Phosphorylation Assay:
The initial step in insulin signaling is phosphorylation of the insulin receptor in response to insulin binding. NIH 3T3 cells overexpressing human insulin receptor (3T3HIR) were grown for 2 days at a density of 2×10^5/ml cells in 6 well culture dishes in DMEM with 10% FBS and L-glutamine. Prior to the experiment the cells were serum-starved overnight with DMEM with 0.1% BSA. The following morning, the cells were washed with PBS and the medium was replaced with 150 mM NaCl, 1.7 mM KCl, 0.9 mM CaCl2, K2HPO4 (pH 7.4), to which were added either the experimental compounds, or their vehicle (DMSO). Insulin or its vehicle (0.01% BSA) was diluted in the assay buffer (containing test compound or vehicle, respectively) to a final concentration of 2.5 nM. After incubating for 15 min, the cells were washed with cold PBS twice and lysed in 50 mM Tris.HCl, pH 7.4 150 mM NaCl, 0.25% sodium deoxycholate, 1% NP-40, 1 mM EGTA, 1 mM PMSF, 1 mM Na3VO4, 1 mM NaF, 1 ug/ml each of Aprotinin, Leupeptin and Pepstatin. The cell lysates were clarified by centrifugation at 12000 rpm, and the supernatants were estimated for protein concentration. Total cell lysate ([…]) was boiled with 2× SDS-PAGE sample buffer for 3 min and loaded into 7.5% SDS-PAGE along with Amersham rainbow marker protein as a molecular weight standard. […]

[2] = tested on: GLUT4 in 3T3 L1 adipocytes; assay: Immunofluorescence analysis of GLUT4 mobilization; type: cell-based; settings: 56 μM Compound 15 alone, 1 hr at 37° C. (FIG. 6C)
Experimental: Immunofluorescence Analysis of GLUT4 Mobilization in 3T3 L1 Adipocytes Insulin-dependent transport of glucose into cells utilizes glucose transporter proteins, such as GLUT4. Stimulation with insulin causes these transporters to translocate from storage sites within the cell to the cell membrane, where they facilitate glucose entry. 3T3 L1 adipocytes were grown and differentiated as in Example 11, except that they were grown on a microscope chamber slide. The cells were serum-starved with 0.1% BSA in DMEM for 16 hrs and stimulated with 56 μM Compound 15 alone, 100 nM Insulin for 1 hr at 37° C. The cells were fixed with 3.5% paraformaldehyde for 5 min and permeabilized with 0.2% saponin in 1% BSA, TBS for 5 min followed by incubation with anti-GLUT4 antibody for 30 min at room temperature. The cells were extensively washed and incubated with FITC-conjugated secondary antibody for 30 min at room temperature.

[3] = biological target: T2, EGFR (Homo sapiens, UniProt P00533); assay: Selectivity: EGFR phosphorylation in A431 cells; type: cell-based; settings: in the presence or absence of EGF (2.5 ng/ml)
T2 construct: endogenous in cells; host or cells: A431
T2 sequence (P00533 25-1210): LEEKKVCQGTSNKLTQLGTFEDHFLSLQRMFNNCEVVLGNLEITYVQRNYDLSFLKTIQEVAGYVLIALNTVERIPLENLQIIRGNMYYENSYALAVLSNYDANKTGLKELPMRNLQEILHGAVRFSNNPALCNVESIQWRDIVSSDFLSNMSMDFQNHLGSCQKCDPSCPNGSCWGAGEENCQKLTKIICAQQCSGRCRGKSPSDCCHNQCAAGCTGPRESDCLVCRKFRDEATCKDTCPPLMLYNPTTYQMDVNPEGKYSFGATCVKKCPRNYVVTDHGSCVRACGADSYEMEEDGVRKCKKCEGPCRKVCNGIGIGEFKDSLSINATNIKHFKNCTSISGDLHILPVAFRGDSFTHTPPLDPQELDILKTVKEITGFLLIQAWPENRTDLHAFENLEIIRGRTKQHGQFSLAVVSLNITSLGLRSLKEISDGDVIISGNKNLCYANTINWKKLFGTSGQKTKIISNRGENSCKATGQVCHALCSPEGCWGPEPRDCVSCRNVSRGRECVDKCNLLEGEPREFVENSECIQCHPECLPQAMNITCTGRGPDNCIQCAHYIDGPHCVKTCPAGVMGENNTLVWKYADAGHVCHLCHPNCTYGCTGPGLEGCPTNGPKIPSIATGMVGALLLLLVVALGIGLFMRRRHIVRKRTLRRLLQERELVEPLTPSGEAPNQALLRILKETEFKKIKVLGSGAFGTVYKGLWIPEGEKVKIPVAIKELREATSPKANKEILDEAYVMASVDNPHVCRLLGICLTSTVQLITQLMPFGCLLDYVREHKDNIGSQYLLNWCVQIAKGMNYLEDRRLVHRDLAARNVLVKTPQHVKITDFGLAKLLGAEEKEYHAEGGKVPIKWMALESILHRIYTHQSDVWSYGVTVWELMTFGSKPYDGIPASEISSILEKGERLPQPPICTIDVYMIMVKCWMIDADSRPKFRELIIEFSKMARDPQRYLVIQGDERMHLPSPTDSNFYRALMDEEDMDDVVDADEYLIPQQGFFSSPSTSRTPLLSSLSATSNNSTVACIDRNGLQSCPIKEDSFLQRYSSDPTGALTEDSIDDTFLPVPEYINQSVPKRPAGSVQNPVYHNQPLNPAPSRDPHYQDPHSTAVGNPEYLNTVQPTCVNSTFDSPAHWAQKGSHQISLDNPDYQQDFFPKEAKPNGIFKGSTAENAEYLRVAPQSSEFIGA
Experimental: Selectivity vs. EGFR, PDGFR and IGFR
In order to determine the selectivity of these compounds for the insulin receptor, their effects on other receptors that share a similar mechanism of activation with the insulin receptor were examined. Human epidermoid carcinoma (A431) cells were plated at a density of 2×10^5 cells per well in 6-well dishes in DMEM with 10% FBS and L-Glutamine and allowed to grow to 75% confluence. Prior to the experiment, the cells were serum-starved overnight with DMEM with 0.1% BSA. The following morning, the cells were washed with PBS and the medium was replaced with 150 mM NaCl, 1.7 mM KCl, 0.9 mM CaCl2, K2HPO4 (pH 7.4), to which was added either the experimental compound or its vehicle (DMSO). Epidermal Growth Factor (EGF) or its vehicle (0.01% BSA) was diluted in the assay buffer (containing test compound or vehicle respectively) to a final concentration of 2.5 ng/ml. After incubating for 15 min, the cells were washed with cold PBS twice and lysed in 50 mM Tris.HCl pH 7.4, 150 mM NaCl, 0.25% sodium deoxycholate, 1% NP40, 1 mM EGTA, 1 mM PMSF, 1 mM Na3VO4, 1 mM NaF, 1 ug/ml each of Aprotinin, Leupeptin and Pepstatin. The cell lysates were clarified by centrifugation at 12000 rpm, and the supernatants were estimated for protein concentration. […]

[4] = tested on: platelet-derived growth factor (PDGF) receptor; assay: Selectivity: PDGF receptor phosphorylation; type: cell-based; settings: in the absence or presence of PDGF
[5] = biological target: CYP1A2 (Homo sapiens, UniProt P05177); assay: P450 interactions: CYP1A2 inhibition; type: in vitro ADME; settings: human cytochromes P450
Sequence of CYP1A2 (P05177 whole entry): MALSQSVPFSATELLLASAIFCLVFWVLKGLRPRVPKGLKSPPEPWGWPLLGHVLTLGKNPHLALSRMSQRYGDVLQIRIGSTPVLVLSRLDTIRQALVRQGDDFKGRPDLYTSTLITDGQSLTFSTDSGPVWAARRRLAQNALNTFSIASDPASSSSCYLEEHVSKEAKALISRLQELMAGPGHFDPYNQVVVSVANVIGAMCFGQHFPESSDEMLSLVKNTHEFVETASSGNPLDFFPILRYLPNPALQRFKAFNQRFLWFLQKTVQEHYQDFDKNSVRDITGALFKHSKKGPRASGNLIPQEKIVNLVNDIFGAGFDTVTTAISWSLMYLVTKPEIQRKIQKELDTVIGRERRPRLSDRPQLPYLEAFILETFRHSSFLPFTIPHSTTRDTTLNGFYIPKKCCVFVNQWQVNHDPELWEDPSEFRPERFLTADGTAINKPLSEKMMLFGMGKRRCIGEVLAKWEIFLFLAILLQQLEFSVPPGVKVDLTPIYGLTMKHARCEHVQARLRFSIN
From the text: (§1) A major pathway for elimination of drugs from the body, which may limit their effectiveness, is the cytochrome P450 system of the liver.

[6] = biological target: CYP2C9 (Homo sapiens, UniProt P11712); assay: P450 interactions: CYP2C9 inhibition; type: in vitro ADME; settings: human cytochromes P450
Sequence of CYP2C9 (P11712 whole entry): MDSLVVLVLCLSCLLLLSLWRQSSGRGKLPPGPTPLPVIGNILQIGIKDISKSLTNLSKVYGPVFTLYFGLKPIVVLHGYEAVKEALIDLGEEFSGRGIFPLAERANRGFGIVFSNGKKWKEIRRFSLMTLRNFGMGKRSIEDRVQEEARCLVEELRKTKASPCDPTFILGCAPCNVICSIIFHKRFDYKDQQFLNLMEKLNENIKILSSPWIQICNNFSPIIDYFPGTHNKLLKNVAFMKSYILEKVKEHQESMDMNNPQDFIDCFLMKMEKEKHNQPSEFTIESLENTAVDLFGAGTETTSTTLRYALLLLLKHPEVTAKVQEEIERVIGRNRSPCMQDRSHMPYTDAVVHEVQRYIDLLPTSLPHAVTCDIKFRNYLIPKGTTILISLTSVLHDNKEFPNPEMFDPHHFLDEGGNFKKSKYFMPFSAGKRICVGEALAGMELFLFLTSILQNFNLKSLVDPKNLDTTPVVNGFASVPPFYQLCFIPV
From the text: as §1

[7] = biological target: CYP2D6 (Homo sapiens, UniProt P10635); assay: P450 interactions: CYP2D6 inhibition; type: in vitro ADME; settings: human cytochromes P450
Sequence of CYP2D6 (P10635 whole entry): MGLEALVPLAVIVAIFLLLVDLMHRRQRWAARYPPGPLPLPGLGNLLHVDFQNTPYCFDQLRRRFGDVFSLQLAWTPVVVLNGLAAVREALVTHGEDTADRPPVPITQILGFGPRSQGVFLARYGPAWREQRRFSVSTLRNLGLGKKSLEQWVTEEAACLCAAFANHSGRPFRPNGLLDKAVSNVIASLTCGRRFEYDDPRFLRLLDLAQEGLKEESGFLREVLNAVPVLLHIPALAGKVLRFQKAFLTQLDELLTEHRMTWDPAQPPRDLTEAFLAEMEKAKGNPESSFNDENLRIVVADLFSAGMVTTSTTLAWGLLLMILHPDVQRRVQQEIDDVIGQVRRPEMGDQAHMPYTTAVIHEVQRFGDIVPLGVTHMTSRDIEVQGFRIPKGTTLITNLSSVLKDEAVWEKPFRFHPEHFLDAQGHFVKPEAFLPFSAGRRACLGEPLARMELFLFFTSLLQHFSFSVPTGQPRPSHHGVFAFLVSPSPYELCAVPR
From the text: as §1

[8] = Distribution of compound-[14C]-15 after oral administration; type: in vivo, rat; settings: STZ/HFD rats, single oral dose 30 mg/kg 14C-labeled, two hours later
Experimental: Distribution of Compound-[14C]-15 After Oral Administration
STZ/HFD rats, prepared as in Example 19, were given a single oral dose of 30 mg/kg compound-[14C]-15 labeled with 50 μCi of 14C prepared as in Example 11A. Two hours later the animals were euthanized and 200 mg samples of various tissues were removed by an IACUC-approved protocol. The tissue samples were homogenized and their radioactivity content was measured by scintillation counting. The highest levels of radioactivity were found in the pancreas, liver, and thigh muscle. These corresponded to Compound 15 concentrations of approximately 780 nM, 200 nM, and 175 nM, respectively. These concentrations would be sufficient to produce insulin receptor phosphorylation in vitro. Lower levels of radioactivity indicative of 50 nM to 100 nM concentrations of the compound were found in abdominal muscle, fat, kidney, and spleen.

T1 sequence (P06213 763-1382 limits assumed): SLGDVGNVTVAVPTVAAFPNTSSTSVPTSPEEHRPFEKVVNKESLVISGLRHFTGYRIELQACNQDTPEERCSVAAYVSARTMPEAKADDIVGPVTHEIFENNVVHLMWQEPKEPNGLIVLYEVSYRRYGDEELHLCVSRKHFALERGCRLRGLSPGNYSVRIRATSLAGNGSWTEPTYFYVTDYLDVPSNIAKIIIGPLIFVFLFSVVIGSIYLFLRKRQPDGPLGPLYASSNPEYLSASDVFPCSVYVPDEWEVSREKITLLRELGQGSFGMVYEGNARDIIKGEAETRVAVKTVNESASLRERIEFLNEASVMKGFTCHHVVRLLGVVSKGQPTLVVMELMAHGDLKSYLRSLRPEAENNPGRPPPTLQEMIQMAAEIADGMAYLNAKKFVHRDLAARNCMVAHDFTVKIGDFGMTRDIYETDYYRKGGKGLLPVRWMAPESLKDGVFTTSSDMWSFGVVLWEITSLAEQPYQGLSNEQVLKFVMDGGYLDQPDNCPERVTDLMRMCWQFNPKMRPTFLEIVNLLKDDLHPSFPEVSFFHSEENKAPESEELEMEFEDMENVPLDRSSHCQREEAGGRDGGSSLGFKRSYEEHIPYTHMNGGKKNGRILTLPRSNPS
T1 sequence (P06213 28-758 partner limits assumed): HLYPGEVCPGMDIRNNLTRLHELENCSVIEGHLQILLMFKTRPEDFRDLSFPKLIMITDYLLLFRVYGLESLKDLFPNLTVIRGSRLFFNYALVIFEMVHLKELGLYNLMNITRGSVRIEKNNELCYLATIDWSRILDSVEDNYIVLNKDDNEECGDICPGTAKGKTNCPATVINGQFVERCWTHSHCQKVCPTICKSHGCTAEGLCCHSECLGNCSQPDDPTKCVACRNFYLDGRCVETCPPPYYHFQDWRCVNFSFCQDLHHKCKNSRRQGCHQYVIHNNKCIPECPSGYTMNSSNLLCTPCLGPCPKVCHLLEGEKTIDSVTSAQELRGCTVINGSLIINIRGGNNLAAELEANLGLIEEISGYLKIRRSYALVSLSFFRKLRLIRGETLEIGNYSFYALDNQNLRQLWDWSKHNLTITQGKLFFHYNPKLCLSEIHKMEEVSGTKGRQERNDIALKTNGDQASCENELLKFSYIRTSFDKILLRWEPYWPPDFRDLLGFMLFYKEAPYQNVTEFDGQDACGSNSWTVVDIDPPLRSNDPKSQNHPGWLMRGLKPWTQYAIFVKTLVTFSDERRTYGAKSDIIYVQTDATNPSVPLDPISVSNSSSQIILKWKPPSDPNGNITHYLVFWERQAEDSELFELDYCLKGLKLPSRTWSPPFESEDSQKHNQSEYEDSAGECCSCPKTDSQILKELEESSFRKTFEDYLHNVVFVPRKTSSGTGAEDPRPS

SMILES: O=C(Nc1ccc2c(O)cc(S(=O)(=O)Nc3cccc(S(=O)(=O)O)c3)cc2c1)Nc1ccc2c(O)cc(S(=O)(=O)Nc3cccc(S(=O)(=O)O)c3)cc2c1 [Compound 15, 3-{[(4-hydroxy-7-{[N-(5-hydroxy-7-{[(3-sulfophenyl)amino]sulfonyl}(2-naphthyl))carbamoyl]amino}-2-naphthyl)sulfonyl]amino}benzenesulfonic acid]
- autophosphorylation of the insulin receptor in whole cells [1]: increase of autophosphorylation
- GLUT4 translocation (immunofluorescence) [2]: produced apparent translocation of GLUT4 to the cell surface
- phosphorylation of EGFR [3]: did not increase the phosphorylation of EGFR
- phosphorylation of the PDGF receptor [4]: not to increase the phosphorylation
- inhibition of catalytic activity of CYP1A2 [5]: did not inhibit
- inhibition of catalytic activity of CYP2C9 [6]: did not inhibit
- inhibition of catalytic activity of CYP2D6 [7]: did not inhibit
- amount of radioactivity in the blood [8]: not above background levels
- tissue concentration, liver [8]: ~200 nM
- tissue concentration, pancreas [8]: approximately 780 nM
- tissue concentration, thigh muscle [8]: ~175 nM
